Measurements: patent publication US20110064662A1, “KIT FOR PRODUCING MOLECULAR PROBE FOR PET SCREENING FOR DRUG DISCOVERY” (RIKEN, priority 2007, published 2011)

How the values were obtained:
[1] = PET analysis of the brain of the monkey after intravenous injection of labeled compound; type: in vivo; conditions: for stability against metabolism: concluded from monkey brain PET images; for initial brain uptake for 10 minutes after administration / elimination from the brain: monkey; for initial brain uptake for 10 minutes after administration: i.v. about 900 MBq, PET of brain, compared with conventional labeled compound
Procedure: The N-(2,5-dimethoxybenzyl)-N-[5-fluoro(4-[^11-C]methylphenoxy)-phenyl]acetamide ([^11C]-9) (^11C-labeled compound) produced in Example 9 was diluted with a mixed solution of physiological saline (3.6 ml), propylene glycol (0.3 ml), ethanol (0.1 ml), and a Tween 80 surfactant (0.1 ml), a radioactivity of about 900 MBq was introduced into a monkey through an intravenous injection, and a PET analysis of the brain of the monkey was performed using an animal PET scanner SHR-7700 manufactured by Hamamatsu Photonics K.K. ([^11C]-20).
[^11C]DAA1106 represented by the formula below was administered into a monkey in the same manner as in Example 10 except that [^11C]DAA1106 was used in place of the N-(2,5-dimethoxybenzyl)-N-[5-fluoro(4-[^11C]methylphenoxy)phenyl]acetamide ([^11C]-9) (labeled compound) produced in Example 9. The time radioactivity curves thereof are shown also in FIG. 3. […] [^11C]DAA1106 was separately produced according to WO 99/06353.
The 1-(2-chloro-5-methylphenyl)-N-methyl-(1-methylpropyl)-3-isoquinolinecarboxamide ([^11C]-20) (^11C-labeled compound) produced in Example 11 was diluted with a mixed solution of physiological saline (3.6 ml), propylene glycol (0.3 ml), ethanol (0.1 ml), and a Tween 80 surfactant (0.1 ml), a radioactivity of about 900 MBq was introduced into a monkey through an intravenous injection, and a PET analysis of [^11C]-20 in the brain of the monkey was performed using an animal PET scanner SHR-7700 manufactured by Hamamatsu Photonics K.K. The results are shown in FIG. 2.
[^11C]PK11195 represented by the formula below was administered into a monkey in the same manner as in Example 12 except that [^11C]PK11195 was used in place of the 1-(2-chloro-5-methylphenyl)-N-methyl-(1-methylpropyl)-3-isoquinolinecarbox amide ([^11C]-20) (labeled compound) produced in Example 11. […] [^11C]PK11195 was separately produced according to R. Camsonne et al., Journal of Labeled Compounds and Radiopharmaceuticals, 1984, 11, pp. 985-991.
The 10-O-p-[^11C]methylbenzylginkgolide B ([^11C]-29) (^11C-labeled compound) produced in Example 16 was diluted with a mixed solution of physiological saline (1.8 ml), propylene glycol (0.15 ml), ethanol (0.05 ml), a Tween 80 surfactant (0.05 ml), and intralipos (2.05 ml), a radioactivity of about 900 MBq was introduced into a monkey through an intravenous injection, and a PET analysis of [^11C]-29 in the brain of the monkey was performed using an animal PET scanner SHR-7700 manufactured by Hamamatsu Photonics K.K. The results are shown in FIG. 8.
[^18F]-30 represented by the formula below was administered into a monkey in the same manner as in Example 17 except that [^18F]-30 was used in place of the 10-O-p-[^11C]-methylbenzylginkgolide B ([^11C]-29) (^11C-labeled compound) produced in Example 16. […] [^18F]-30 was separately produced according to Makiko Suehiro, et al., J. Labelled Compd. Radiopharm., 47, pp. 485-491, 2004.

P-glycoprotein = assay: Experiment for determining P-glycoprotein substrates (brain radioactivity in rats with or without cyclosporin A pre-administration); type: in vivo; conditions: for amount of tracer present in the brain upon pre-administration of CsA: CsA in different doses 30 min before tracer, brain removed 30 min after tracer
Procedure: P-glycoprotein inhibitor cyclosporin A (CsA) was administered into rats 30 minutes prior to the administration of tracers. Thirty minutes after the administration of tracers, the rats were decapitated to remove the brains and measure the radioactivity. […] An SUV value in the present experiment is the average of the results obtained from 4 rats and expressed using a standard deviation.

[2] = Proportion of brain SUV to blood SUV in rats, with and without brain blood perfusion; type: in vivo; conditions: for uptake by the parenchyma of the brain: concluded from pre- and post-perfusion data; for amount of tracer after the brain blood perfusion: physiological saline perfused via the heart before decapitation
Procedure: As in Example 18, P-glycoprotein inhibitor cyclosporin A (CsA) was administered into rats in an amount of 25 mg/kg body weight of a rat 30 minutes prior to the administration of tracers. Thirty minutes after the administration of tracers, the rats were decapitated to remove the brains and measure the radioactivity. The figures show the results obtained from control rats into which no CsA was administered and from those into which CsA was administered in an amount of 25 mg/kg, expressed as a proportion of the brain SUV to the blood SUV. The SUV value in the present experiment is the average of the results obtained from two rats and expressed using a standard deviation. 10-O-p-[^11C]methylbenzylginkgolide B ([^11C]-29) (^11C-labeled compound) produced in Example 16 and [^18F]-30 were used as the tracers. […] FIG. 11 is from the measurement of radioactivity in the brain removed after decapitation, and FIG. 12 is from the measurement of radioactivity performed after flushing the blood out of the brain by infusing/perfusing physiological saline into the heart of a rat before decapitation.

PAF receptor = PAF receptor (Homo sapiens, UniProt P25105); conditions: more strongly than natural ginkgolide B; cited from earlier work
[3] = time radioactivity curves after i.v. administration

Sequence of PAF receptor (P25105 whole entry): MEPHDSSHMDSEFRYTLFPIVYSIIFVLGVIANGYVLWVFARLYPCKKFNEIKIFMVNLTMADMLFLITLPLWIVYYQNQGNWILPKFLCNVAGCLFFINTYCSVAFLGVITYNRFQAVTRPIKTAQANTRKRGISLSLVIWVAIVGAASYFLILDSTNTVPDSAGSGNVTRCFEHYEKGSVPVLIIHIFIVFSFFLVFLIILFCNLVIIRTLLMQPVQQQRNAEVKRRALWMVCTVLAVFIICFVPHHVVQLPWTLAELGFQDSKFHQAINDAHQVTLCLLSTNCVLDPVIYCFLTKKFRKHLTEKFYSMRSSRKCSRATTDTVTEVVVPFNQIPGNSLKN

Row | Compound | stability against metabolism [1] | initial brain uptake for 10 minutes after administration [1] | elimination from the brain [1, 3] | brain uptake ([1]; monkey brain PET) | also measured
1 | 10-O-p-[^11C]methylbenzylginkgolide B [[^11C]-29] | stable against metabolism | increased initial brain uptake | promptly eliminated from the brain with time | – | amount of tracer present in the brain upon pre-administration of CsA (P-glycoprotein): changed in a volume-dependent manner; SUV values relative to those of [^11C]verapamil (P-glycoprotein; brain SUV, [^11C]verapamil as standard reference): about 30%; uptake by the parenchyma of the brain [2]: taken up by the parenchyma of the brain; amount of tracer after the brain blood perfusion ([2]; control and CsA 25 mg/kg): did not change
2 | COc1ccc(OC)c(CN(C(C)=O)c2cc(F)ccc2Oc2ccc([11CH3])cc2)c1 [[^11C]-9, N-(2,5-dimethoxybenzyl)-N-[5-fluoro-(4[^11C]methylphenoxy)phenyl]acetamide] | stable against metabolism | greater initial brain uptake | – | greater than that of the conventional labeled compound | –
3 | CCC(C)N(C)C(=O)c1cc2ccccc2c(-c2cc([11CH3])ccc2Cl)n1 (centres unmarked) [[^11C]-20, 1-(2-chloro-5-[^11C]methylphenyl)-N-methyl-(1-methylpropyl)-3-isoquinolinecarboxamide] | stable against metabolism | greater initial brain uptake | promptly eliminated from the brain with time | greater than that of the conventional labeled compound | –
4 | COc1ccc(O[11CH3])c(CN(C(C)=O)c2cc(F)ccc2Oc2ccccc2)c1 [[^11C]DAA1106, reference compound] | – | – | – | – | elimination from the brain ([1]; in vivo, iv): barely eliminated from the brain
5 | CCC(C)N([11CH3])C(=O)c1cc2ccccc2c(-c2ccccc2Cl)n1 (centres unmarked) [[^11C]PK11195, reference compound] | – | – | barely eliminated from the brain | – | –
6 | C[C@@H]1C(=O)O[C@H]2[C@H](O)C34C5OC(=O)[C@@]3(OC3OC(=O)C(O)C34[C@H](C(C)(C)C)[C@@H]5[18F])[C@@]12O (some centres unmarked) [[^18F]-30, reference compound] | – | – | – | barely taken up by the brain | blood-brain barrier penetration ([1]; monkey brain PET): little blood-brain barrier penetration; amount of tracer present in the brain upon pre-administration of CsA (P-glycoprotein): did not change; proportion of the brain SUV to the blood SUV ([2]; 30 min after tracer, control and CsA 25 mg/kg): ≤ 0.04; uptake by the parenchyma of the brain [2]: not taken up by the parenchyma of the brain; amount of tracer after the brain blood perfusion ([2]; control and CsA 25 mg/kg): washed away by the brain blood perfusion
7 | Cc1ccc(COC2C(=O)OC3O[C@@]45C(=O)OC6C[C@@H](C(C)(C)C)C32C64[C@@H](O)[C@@H]2OC(=O)[C@@H](C)[C@@]25O)cc1 (some centres unmarked) [compound 29, 10-O-p-methylbenzylginkgolide B] | – | – | – | – | binding with a PAF receptor relative to natural ginkgolide B (PAF receptor): 10 times
